# Results published in publication PMC11053447, “Human ABC and SLC Transporters: The Culprit Responsible for Unspecific PSMA-617 Uptake?” (Pharmaceuticals, 2024).
# Like-named read-outs stand apart in the source and are kept apart here.
# Key:
# human MATE1 = biological target: T1, human MATE1 (Homo sapiens, UniProt Q96FL8); assay: SLC transporter substrate assay, MDCKII-MATE1-Fin vs control MDCKII-CAT-Fin cells
# T1 sequence (Q96FL8 1-570): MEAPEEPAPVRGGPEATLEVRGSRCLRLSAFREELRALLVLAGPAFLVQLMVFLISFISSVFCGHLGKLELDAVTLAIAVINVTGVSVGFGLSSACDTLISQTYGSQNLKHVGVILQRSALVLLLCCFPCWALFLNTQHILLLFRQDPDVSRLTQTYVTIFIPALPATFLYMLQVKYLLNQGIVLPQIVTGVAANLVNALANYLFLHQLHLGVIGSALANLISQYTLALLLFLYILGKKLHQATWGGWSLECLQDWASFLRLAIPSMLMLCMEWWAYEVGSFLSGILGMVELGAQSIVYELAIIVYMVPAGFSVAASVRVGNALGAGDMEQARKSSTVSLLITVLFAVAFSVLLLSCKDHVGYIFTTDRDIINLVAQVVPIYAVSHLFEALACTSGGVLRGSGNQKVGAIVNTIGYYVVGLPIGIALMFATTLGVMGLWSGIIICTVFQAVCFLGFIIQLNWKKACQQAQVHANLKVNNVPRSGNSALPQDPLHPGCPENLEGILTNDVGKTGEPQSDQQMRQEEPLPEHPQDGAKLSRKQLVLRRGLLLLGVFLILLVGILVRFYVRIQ
# Experimental: (§1) The described cells were plated onto standard 24-well tissue culture plates at densities of 5 × 10^5 cells/well. […] Before starting the experiment, the cells were prepared by removing the medium and washing the cells twice with 300 µL of assay buffer. […] The cells were lysed by adding 300 µL of 0.1N NaOH, they were incubated for 10 min at 37 °C and 100 µL samples were taken from all the wells.
# (§2) The amount of protein in each well was quantified using the BCA kit for protein determination (Sigma-Aldrich, St Louis, MO, USA). Positive controls were performed using a separate 96-well plate format according to Table S8 in SI4.
# (§3) SI4. Results of transporter substrate assays (SLC)
# (§4) Table S8: Parameters of positive controls, control cell lines and plating for SLC transporters assays.
# (§5) KH: Krebs-Henseleit buffer, HBSS: Hank's balanced salt solution, MES: 2 -(N-morpholino) ethanesulfonic acid, cGMP:
# (§6) Guanosine cyclic phosphate, E3S: Estrone -3-sulfate, Gly-Sar: Glycylsarcosine, MPP+: 1-methyl-4-phenylpyridinium.
# (§7) Calculation of fold accumulation values for SLC transporter substrate assays The fold accumulation value was defined as the ratio of uptake of the test substance (TS) or probe substrate into transfected and control cells. If the fold accumulation is > 2 and can be inhibited by a known inhibitor of the transporter, the test substance can be considered as a substrate of the respective transporter.
# (§8) Fold accumulation = UPTTRP
# (§9) • UPTTRP: accumulated amount of test substance (TS) or probe substrate in transfected cells normalized by protein content […]
# (§10) • UPTCTRL: accumulated amount of test substance (TS) or probe substrate in control cells normalized by protein content […]
# 4.1 Multidrug and toxin extrusion protein MATE1
# (MDCKII-MATE1-Fin) and control cells (MDCKII-CAT-Fin) applying 2- and 20-minute incubation periods, measured in SLC transporter substrate assay. […] Concentrations are nominal. […]
# control cells (MDCKII-CAT-Fin) applying 2- and 20-minute incubation periods, measured in SLC transporter substrate […]
# Compound Nominal In MATE1 Fold
# human MATE2-K = human MATE2-K (Homo sapiens, UniProt Q86VL8); assay: SLC transporter substrate assay, MDCKII-MATE2K-Fin vs control MDCKII-CAT-Fin cells
# Experimental: as §1, §2, §3, §4, §5, §6, §7, §8, §9, §10
# 4.2 Multidrug and toxin extrusion protein MATE2-K
# (MDCKII-MATE2K-Fin) and control cells (MDCKII-CAT-Fin) applying 2- and 20-minute incubation periods, measured in SLC transporter substrate assay. […] Concentrations are nominal. […]
# and control cells (MDCKII-CAT-Fin) applying 2- and 20-minute incubation periods, measured in SLC transporter […]
# Compound Nominal In MATE2-K Fold
# MRP1 = MRP1 (Homo sapiens, UniProt P33527); conditions: for Relative inhibition / ATP dependent transport / Relative ATP dependent transport: E217βG probe; for ATP dependent transport / Relative ATP dependent transport: mean (n=3) ± SD
# Sequence of MRP1 (P33527 whole entry): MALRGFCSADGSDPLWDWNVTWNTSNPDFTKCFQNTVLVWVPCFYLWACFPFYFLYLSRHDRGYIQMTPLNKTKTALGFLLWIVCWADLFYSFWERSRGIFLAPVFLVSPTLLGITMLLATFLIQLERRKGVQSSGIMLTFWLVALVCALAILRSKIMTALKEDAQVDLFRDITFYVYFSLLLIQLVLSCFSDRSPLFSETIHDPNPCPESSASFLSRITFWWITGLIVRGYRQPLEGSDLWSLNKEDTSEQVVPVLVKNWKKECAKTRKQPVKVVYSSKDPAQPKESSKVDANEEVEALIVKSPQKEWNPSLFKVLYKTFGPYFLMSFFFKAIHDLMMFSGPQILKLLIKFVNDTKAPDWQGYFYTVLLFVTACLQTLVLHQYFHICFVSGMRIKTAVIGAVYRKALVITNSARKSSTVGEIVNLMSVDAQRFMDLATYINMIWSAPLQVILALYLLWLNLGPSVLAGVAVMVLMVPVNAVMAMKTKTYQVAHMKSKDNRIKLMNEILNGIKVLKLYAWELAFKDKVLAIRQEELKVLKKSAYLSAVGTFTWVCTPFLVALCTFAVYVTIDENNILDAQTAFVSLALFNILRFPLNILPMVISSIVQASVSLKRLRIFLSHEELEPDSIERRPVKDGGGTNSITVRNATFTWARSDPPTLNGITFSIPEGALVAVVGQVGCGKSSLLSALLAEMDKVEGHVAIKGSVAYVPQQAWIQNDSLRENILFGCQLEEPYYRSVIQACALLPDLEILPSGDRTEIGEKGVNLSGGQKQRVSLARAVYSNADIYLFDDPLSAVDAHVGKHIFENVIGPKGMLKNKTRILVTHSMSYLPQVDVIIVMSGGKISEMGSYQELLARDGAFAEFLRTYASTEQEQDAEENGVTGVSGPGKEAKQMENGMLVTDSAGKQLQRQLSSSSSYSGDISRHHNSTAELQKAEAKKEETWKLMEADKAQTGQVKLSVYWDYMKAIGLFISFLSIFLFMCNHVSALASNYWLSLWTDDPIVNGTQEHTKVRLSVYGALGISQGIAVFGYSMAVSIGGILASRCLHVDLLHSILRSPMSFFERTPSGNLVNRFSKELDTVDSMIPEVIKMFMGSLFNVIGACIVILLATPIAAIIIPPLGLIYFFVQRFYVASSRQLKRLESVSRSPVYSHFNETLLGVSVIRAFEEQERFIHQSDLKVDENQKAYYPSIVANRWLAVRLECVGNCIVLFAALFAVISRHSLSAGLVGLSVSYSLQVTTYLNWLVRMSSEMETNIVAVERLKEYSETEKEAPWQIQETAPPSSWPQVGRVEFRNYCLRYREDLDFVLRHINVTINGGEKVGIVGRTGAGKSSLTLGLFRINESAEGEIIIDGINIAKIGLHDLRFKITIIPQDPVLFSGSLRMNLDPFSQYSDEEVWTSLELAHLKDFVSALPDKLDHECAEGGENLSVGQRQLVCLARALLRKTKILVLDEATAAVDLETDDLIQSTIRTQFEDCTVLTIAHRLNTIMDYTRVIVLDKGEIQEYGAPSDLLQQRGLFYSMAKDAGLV
# Sequence of human MATE2-K (Q86VL8 1-566 isoform Q86VL8-3): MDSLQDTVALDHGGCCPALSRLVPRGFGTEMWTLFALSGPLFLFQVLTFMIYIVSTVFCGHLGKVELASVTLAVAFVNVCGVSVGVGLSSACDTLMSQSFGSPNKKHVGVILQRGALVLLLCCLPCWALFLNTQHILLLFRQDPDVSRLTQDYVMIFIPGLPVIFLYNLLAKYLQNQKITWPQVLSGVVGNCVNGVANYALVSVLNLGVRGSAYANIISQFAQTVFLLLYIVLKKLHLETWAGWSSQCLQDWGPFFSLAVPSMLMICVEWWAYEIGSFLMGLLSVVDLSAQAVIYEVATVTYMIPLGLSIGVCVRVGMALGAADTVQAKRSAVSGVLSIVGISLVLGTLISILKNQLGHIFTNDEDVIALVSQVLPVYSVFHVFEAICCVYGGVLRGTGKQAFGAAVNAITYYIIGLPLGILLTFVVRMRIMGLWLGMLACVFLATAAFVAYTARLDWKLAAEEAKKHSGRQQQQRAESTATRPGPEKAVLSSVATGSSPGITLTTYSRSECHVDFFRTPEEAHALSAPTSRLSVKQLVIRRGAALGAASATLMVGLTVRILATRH
smiles,measurement,setting,value
"[3H]C(c1ccc2ccccc2c1)C([3H])(NC(=O)C1CCC(CNC(=O)CN2CCN(CC(=O)[O-])CCN(CC(=O)[O-])CCN(CC(=O)[O-])CC2)CC1)C(=O)NCCCCC(NC(=O)NC(CCC(=O)O)C(=O)O)C(=O)O.[Lu+3] (stereo not drawn) [([α,β-^3H]Nal)Lu-PSMA-617]",Accumulation in MATE1 transporter expressing cells,"human MATE1; 0.03 µM nominal, 2 min",0.07 ± 0.01 pmol/mg protein
same,Accumulation in control cells,"human MATE1; 0.03 µM nominal, 2 min",0.12 ± 0.01 pmol/mg protein
same,"Accumulation, active transport","human MATE1; 0.03 µM nominal, 2 min",-0.05 ± 0.02 pmol/mg protein
same,Fold accumulation,"human MATE1; 0.03 µM nominal, 2 min",0.60
same,Accumulation in MATE1 transporter expressing cells,"human MATE1; 0.03 µM nominal, 20 min",0.09 ± 0.00 pmol/mg protein
same,Accumulation in control cells,"human MATE1; 0.03 µM nominal, 20 min",0.19 ± 0.02 pmol/mg protein
same,"Accumulation, active transport","human MATE1; 0.03 µM nominal, 20 min",-0.10 ± 0.02 pmol/mg protein
same,Fold accumulation,"human MATE1; 0.03 µM nominal, 20 min",0.49
same,Accumulation in MATE1 transporter expressing cells,"human MATE1; 0.30 µM nominal, 2 min",0.67 ± 0.05 pmol/mg protein
same,Accumulation in control cells,"human MATE1; 0.30 µM nominal, 2 min",0.82 ± 0.11 pmol/mg protein
same,"Accumulation, active transport","human MATE1; 0.30 µM nominal, 2 min",-0.15 ± 0.12 pmol/mg protein
same,Fold accumulation,"human MATE1; 0.30 µM nominal, 2 min",0.81
same,Accumulation in MATE1 transporter expressing cells,"human MATE1; 0.30 µM nominal, 20 min",0.77 ± 0.12 pmol/mg protein
same,Accumulation in control cells,"human MATE1; 0.30 µM nominal, 20 min",1.02 ± 0.12 pmol/mg protein
same,"Accumulation, active transport","human MATE1; 0.30 µM nominal, 20 min",-0.26 ± 0.17 pmol/mg protein
same,Fold accumulation,"human MATE1; 0.30 µM nominal, 20 min",0.75
same,Substrate assessment (MATE1),"human MATE1; 0.03, 0.30 µM, 2, 20 min",no in vitro substrate
same,"Max. transporter-specific fold accumulation, without inhibitor","human MATE1; 2 min, 0.3 µM",0.81
same,Accumulation in MATE2-K transporter expressing cells,"human MATE2-K; 0.03 µM nominal, 2 min",0.06 ± 0.01 pmol/mg protein
same,Accumulation in control cells,"human MATE2-K; 0.03 µM nominal, 2 min",0.11 ± 0.01 pmol/mg protein
same,"Accumulation, active transport","human MATE2-K; 0.03 µM nominal, 2 min",-0.05 ± 0.02 pmol/mg protein
same,Fold accumulation,"human MATE2-K; 0.03 µM nominal, 2 min",0.54
same,Accumulation in MATE2-K transporter expressing cells,"human MATE2-K; 0.03 µM nominal, 20 min",0.10 ± 0.01 pmol/mg protein
same,Accumulation in control cells,"human MATE2-K; 0.03 µM nominal, 20 min",0.16 ± 0.01 pmol/mg protein
same,"Accumulation, active transport","human MATE2-K; 0.03 µM nominal, 20 min",-0.07 ± 0.01 pmol/mg protein
same,Fold accumulation,"human MATE2-K; 0.03 µM nominal, 20 min",0.59
same,Accumulation in MATE2-K transporter expressing cells,"human MATE2-K; 0.30 µM nominal, 2 min",0.64 ± 0.14 pmol/mg protein
same,Accumulation in control cells,"human MATE2-K; 0.30 µM nominal, 2 min",0.59 ± 0.04 pmol/mg protein
same,"Accumulation, active transport","human MATE2-K; 0.30 µM nominal, 2 min",0.05 ± 0.15 pmol/mg protein
same,Fold accumulation,"human MATE2-K; 0.30 µM nominal, 2 min",1.08
same,Accumulation in MATE2-K transporter expressing cells,"human MATE2-K; 0.30 µM nominal, 20 min",0.91 ± 0.13 pmol/mg protein
same,Accumulation in control cells,"human MATE2-K; 0.30 µM nominal, 20 min",0.97 ± 0.07 pmol/mg protein
same,"Accumulation, active transport","human MATE2-K; 0.30 µM nominal, 20 min",-0.06 ± 0.15 pmol/mg protein
same,Fold accumulation,"human MATE2-K; 0.30 µM nominal, 20 min",0.94
same,Substrate assessment (MATE2-K),"human MATE2-K; 0.03, 0.30 µM, 2, 20 min",no in vitro substrate
same,"Max. transporter-specific fold accumulation, without inhibitor","human MATE2-K; 2 min, 0.3 µM",1.08
same,Inhibitor assessment (MRP1),"MRP1; 0.30 and 3.00 µM, inhibition >20% defined as significant",no inhibitor
same,Relative inhibition,MRP1; test substance 0.30 µM nominal,9%
same,ATP dependent transport,MRP1; test substance 0.30 µM nominal,734.00 ± 31.29 pmol/mg/min
same,Relative ATP dependent transport,MRP1; test substance 0.30 µM nominal,91.45 ± 7.39 % of control
same,Relative inhibition,MRP1; test substance 3.00 µM nominal,9%
same,ATP dependent transport,MRP1; test substance 3.00 µM nominal,730.00 ± 37.02 pmol/mg/min
same,Relative ATP dependent transport,MRP1; test substance 3.00 µM nominal,90.95 ± 7.76 % of control
